Experimental data from patent publication US10722492B2, “Andrographolide treats progressive forms of multiple sclerosis” (INNOBIOSCIENCES, LLC, priority 2016, dated 2020).
Read-outs that look alike come from different tables or passages of the source.

Tests used:
[1] = tested on: MOG-immunized C57BL/6J mice (EAE); assay: EAE therapeutic treatment from chronic phase (day 15 post-immunization); assay type: in vivo
Procedure: […] […] As controls MOG-immunized C57BL/6J mice were injected with vehicle (PBS) daily. At day 21 p.i. mice were sacrificed. MOG-immunized mice treated with either PBS (A-C) or AG (B-D) were perfussed and 4% p-formaldehyde fixed. Toraxic spinal cords sections were dissected and analyzed for inflammatory infiltrate by hematoxylin-eosin staining (H&E) and for demyelination with luxol fast blue staining (LFB). Insets show higher magnification (20×).

[2] = tested on: patients with progressive forms of Multiple Sclerosis; assay: Controlled, randomized, double-blinded human clinical trial of andrographolide; assay type: in vivo
Procedure: We have tested andrographolide in a controlled, randomized, double-blinded human clinical trial of andrographolide 140 mg orally administered twice per day (i.e., 280 mg per day) in patients with progressive forms of Multiple Sclerosis. The principle objective of that study was to determine efficacy, safety and tolerability of andrographolide in retarding the progression of brain atrophy. Secondary end-points included: delay in the disability capacity progression through the Expanded Disability Status Scale (EDSS) and Multiple Sclerosis Funcitonal Composite (MSFC) at 24 months compared to the baseline; delay in cognitive impairment by means of Paced Auditory Serial Addition Test (PASAT), Symbol Digit Modalities Test (SDMT) and depression (Beck) at 24 months compared to the baseline; quality of life Multiple Sclerosis Impact Scale (MSIS 29) and fatigue (Krupp) through parameters reported by the patients at 24 months compared to the baseline; Tolerability of andrographolide measured by Magnetic Resonance (MR) at 24 months compared to baseline; Number and volume of new lesions or larger size in T2 by MR at 24 months compared to the baseline; Number of new hipointense lesions in T1 or (gadolinium captive) by MR at 24 months compared to baseline; Delay in the retinal thinning measured by Optical Coherence Tomography (OCT) and visual field at 24 months compared to the baseline; and Safety of andrographolide at 24 months through the record of adverse effects in symptom diary and programmed interviews. The details of the study are described more completely in U.S. Provisional patent application Ser. No. 62/347,218 (filed 8 Jun. 2016), incorporated here by reference.
The numbers (x axis) on the figure are measurements 6: corresponds to 2 year treatment. There are still many patients that need to complete the 2 year treatment. The data therefore show a lot of variance. […] The 9-HPT is a brief, standardized, quantitative test of upper extremity function. It is the second component of the MSFC to be administered at each visit. Both the dominant and non-dominant hands are tested twice. The patient is seated at a table with a small, shallow container holding nine pegs and a wood or plastic block containing nine empty holes. On a start command when a stopwatch is started, the patient picks up the nine pegs one at a time as quickly as possible, puts them in the nine holes, and, once they are in the holes, removes them again as quickly as possible one at a time, replacing them into the shallow container. The total time to complete the task is recorded. Two consecutive trials with the dominant hand are immediately followed by two consecutive trials with the non-dominant hand.
There are 3 components of the Multiple Sclerosis Functional Composite (MSFC) disease activity index: function of the legs, function of the arms and cognitive function. The corresponding tests are a 25 feet (7.6 m) walk; test of 9 holes and pin and the Paced Auditory Serial Addition test 3 (PASAT3). Multiple attempts will be made of each test in each visit. The MSFC score and the scores of the 3 sub-scales and the change from the basal values will be recorded in each visit
One measure of progressive MS disease severity is the Expanded Disability Status Scale (EDSS). EDSS is a scale to determine the neurological disability in MS and is used to confirm progression of the disease. It consists of a system of two parts. The first part measures eight functional systems (FS). The second part measures disability on a scale of […], zero being no disability and 10 being death due to MS.
The Nine Hole Pin Test (9HPT) is a component of the MS Functional Composite (MSFC) score. 9HPT is a timed test measuring the time (seconds) required to insert each of nine pins into nine holes in a plank. The test is done on each of the right and left arms. The test measures eye-hand coordination and fine muscle control. […]

EAE model = settings: prophylactic administration; cited from earlier work
[3] = many clinical studies; cited from earlier work
microglia = settings: cited from earlier work
dendritic cells = settings: mice model; cited from earlier work
[4] = tested on: Jurkat cell line (lymphom of T cells); settings: through inhibition of NFAT and MAPK-Erk 1/2; cited from earlier work
SP & PPMS forms = settings: summary of prior art; cited from earlier work
[5] = tested on: patients with all clinical forms of MS; settings: cited from earlier work
MS participants = settings: cited from earlier work
progressive MS patients = settings: cited from earlier work
[6] = tested on: patients with worsening RRMS or SPMS with relapses; settings: 24 months, 95% CI 0.17-0.44; p<0.001; cited from earlier work
[7] = tested on: patients with RRMS, PRMS and SPMS with relapses; settings: 2 years follow-up, p=0.05; cited from earlier work
[8] = tested on: Lymph node cell suspensions obtained from C57BL/6 and BALB/c mice; assay: Lymph node cell co-culture, IL-2 release (ELISA) and T cell proliferation (Cell Titer); assay type: cell-based; settings: increasing concentrations, 72 h, FIG. 1A
Procedure: (§1) (A) Lymph node cell suspensions obtained from C57BL/6 and BALB/c mice were co-cultured with increasing concentrations of IB-MS for 72 h. After this time, supernatants were harvested and analyzed for IL-2 release by ELISA assay (circles) and T cell proliferation (squares) was determined by Cell Titer assay. (B) Mice treated with vehicle (solid circles) or andrographolide (empty circles) were MOG-immunized one week later and clinical score determined daily.

MOG-immunized mice (EAE) = assay: EAE prevention: treatment before MOG immunization, daily clinical score; assay type: in vivo; settings: MOG-immunized one week after treatment, FIG. 1B
Procedure: as §1

patients with PPMS = settings: 95% confidence interval 0.71-1.07; p=0.1753; non-significant delay; cited from earlier work
SPMS and PPMS patients = settings: cited from earlier work
[9] = tested on: patients with Secondary progressive MS; settings: cited from earlier work
[10] = tested on: subjects with Secondary progressive MS with relapses; settings: vs placebo; cited from earlier work
PPMS patients = settings: cited from earlier work
[11] = 4 mg/kg daily, day 15 to day 20 post-immunization, FIG. 3
[12] = twelve months of treatment, FIG. 7

C=C1CC[C@@H]2[C@](C)(CO)[C@H](O)CC[C@@]2(C)[C@@H]1C/C=C1/C(=O)OC[C@H]1O [andrographolide, Andrographolide]
demyelination in spinal cord (LFB) [1, 11]: reduced | inflammatory infiltrate in spinal cord (H&E) [1, 11]: reduced | efficacy, interim results ([2]; 12 months of treatment): statistically-significant efficacy | Expanded Disability Status Scale (EDSS) ([2]; 12 months of treatment vs placebo, FIG. 6): an improvement viz placebo which becomes statistically-significant by nine months | MSIS 29 scale scores ([2]; preliminary, 2 years vs day 0, FIG. 11): maintain or slightly improve their scores | MSIS 29 scale ([2]; treatment group (a), after 2 years, from 80 at day 0, FIG. 11): 90 percentage | Nine Hole Pin Test, left hand (9HPT-L), time to complete [2, 12]: the improvement becomes statistically significant almost immediately | Nine Hole Pin Test, right hand (9HPT-R), time to complete [2, 12]: improvement becomes statistically significant by twelve months of treatment | 9-HPT (upper extremity function) ([2]; up to 2 year treatment, FIG. 10): the treated patients are more skilled and more quickly complete the task | 25-Feet Walk Test (25 FWT), time to complete ([2]; vs placebo, twelve months, preliminary data, FIG. 8): improvement becomes statistically significant immediately on commencement of treatment | development of EAE (EAE model): prevents the development Of EAE | tolerability and safety [3]: well tolerated and safe | reactive oxygen species, TNF-α, nitric oxide and prostaglandins E2 (microglia): reduces | maturation of dendritic cells and capacity to present antigens to T cells (dendritic cells): decreases | process of activation of Jurkat cell line [4]: decreases

Cn1cnc([N+](=O)[O-])c1Sc1ncnc2nc[nH]c12 [azathioprine, Azathioprine]
slowing down / reduction of disability progression in progressive MS (SP & PPMS forms): do not show a reduction in the progression of disability | number of patients who had relapses, relative risk reduction [RRR] ([5]; first year of treatment, 95% CI=5% to 33%): 20% | number of patients who had relapses, relative risk reduction [RRR] ([5]; three years follow-up, 95% CI=7% to 27%): 18% | number of patients who progressed, RRR ([5]; three years' follow-up, 95% CI=7% to 64%, 87 patients): 42% | number of patients who had relapses, relative risk reduction [RRR] ([5]; two years, 95% CI=12% to 33%): 23%

O=P1(N(CCCl)CCCl)NCCCO1 (stereo not drawn) [cyclophosphamide, Cyclophosphamide]
slowing down / reduction of disability progression in progressive MS (SP & PPMS forms): do not show a reduction in the progression of disability | long-term clinical disability progression (evolution to a next step of EDSS score) (MS participants; 12, 18, 24 months): did not prevent | mean change in disability (effect size) (MS participants; 12 months, 95% confidence interval −0.25 to −0.17): −0.21 | mean change in disability (effect size) (MS participants; 18 months, 95% confidence interval −0.24 to −0.14): −0,19 | mean change in disability (effect size) (MS participants; 24 months, CI 0.07 to 0.21, favoured the control group): 0.14

CN(Cc1cnc2nc(N)nc(N)c2n1)c1ccc(C(=O)N[C@@H](CCC(=O)O)C(=O)O)cc1 [methotrexate, Methotrexate]
major side effects (progressive MS patients; in vivo): no major side effects | minor side effects reported (progressive MS patients; placebo 89.7%): 87.1% | sustained EDSS progression and number of relapses (progressive MS patients; vs placebo): non-significant reduction | time to first relapse (progressive MS patients; vs placebo): no difference in time to first relapse | slowing down / reduction of disability progression in progressive MS (SP & PPMS forms): do not show a reduction in the progression of disability

O=C1c2c(O)ccc(O)c2C(=O)c2c(NCCNCCO)ccc(NCCNCCO)c21 [mitoxantrone, Mitoxantrone]
different clinical measures (difference vs placebo) [6]: 0.3 | proportion of patients with 6-months confirmed progression of disability (Odds Ratios) [7]: 0.3 | slowing down / reduction of disability progression in progressive MS (SP & PPMS forms): do not show a reduction in the progression of disability

Andrographolide
T cell activation (IL-2 release, T cell proliferation) [8]: interferes with T cell activation | EAE clinical score (MOG-immunized mice (EAE)): prevents EAE | effect in EAE ([1]; 4 mg/kg every second day, day 15 to day 30 post-immunization, FIG. 2): has a therapeutic effect in EAE

Glatiramer Acetate
time to sustained accumulated disability (hazard ratio) (patients with PPMS): 0.87 | slowing down / reduction of disability progression in progressive MS (SP & PPMS forms): failed to demonstrate efficacy | local injection-site reactions (SPMS and PPMS patients; in vivo): up to a half of patients | major toxicity (SPMS and PPMS patients; in vivo): No major toxicity | benefit in SPMS and PPMS patients (SPMS and PPMS patients; meta-analysis): No benefit

Interferon beta-1b [IFNB-1b]
time to confirmed 1.0 point progression on the Expanded Disability Status Scale (EDSS) ([9]; p=0.007): delayed | progression of 2.0 EDSS point, lower ([9]; vs placebo): 27% | relapse and MRI-related outcomes [10]: significant benefit | time to confirmed progression of disability [10]: no treatment benefit | slowing down / reduction of disability progression in progressive MS (SP & PPMS forms): failed to demonstrate efficacy

Rituximab
increase in T2 lesion volume (PPMS patients; baseline to week 96, p<0.001): less | brain volume change (PPMS patients; baseline to week 96, p=0.62): similar | confirmed disease progression, 96-week rate (PPMS patients; placebo 38.5%, p=0.14, not significant): 30.2% | adverse events (PPMS patients; vs placebo): comparable between groups

natalizumab
slowing down / reduction of disability progression in progressive MS (SP & PPMS forms): no effect on the progressive forms
